Measurements reported in patent publication US20260284240A1, “RADIOLABELED COMPOUND FOR USE IN A METHOD OF TREATING CARBONIC ANHYDRASE IX POSITIVE DISEASES” (DEBIOPHARM INTERNATIONAL S.A., priority 2023, published 2026).
Read-outs that look alike come from different tables or passages of the source. Starred links: 1 amine or outer side, 2 acyl side, 3 side chain; linkers in the order of their positions; H or OH if unused. Positions of bridges follow the written chain, without caps; N, C: chain ends. Non-standard residues stand in square brackets, D forms with d. Residues, ends and D or L forms follow the SMILES beside them. *: point of attachment. Phe(3-NHCO(CH2)3SO2NH2) = N[C@@H](Cc1cccc(NC(=O)CCCS(N)(=O)=O)c1)C(=O)O; DOTA = O=C(O)CN1CCN(CC(=O)O)CCN(CC(=O)*)CCN(CC(=O)O)CC1; mXylylene = c1cc(C[*:1])cc(C[*:2])c1; X1 = O=C(CN1CCN([*:1])CC1)[*:2]

Key:
human CAIX = target: T1, human CAIX (Homo sapiens, UniProt Q16790); assay: Surface Plasmon Resonance (SPR) binding to captured human CAIX (Biacore T200); settings: 25° C.
T1 construct: purchased Sino Biological 10107-H02H
Method: Surface Plasmon Resonance (SPR) studies were performed on a Biacore™ T200 using a ligand capture approach. Basically, anti-human Fc antibodies were immobilized on the surface of a sensor chip and CAIX was captured on the functionalized surface via its Fc Tag. Then, each compound was injected at increasing concentrations on the captured CAIX in order to measure the in real-time interaction of the compound to its target (i.e., the captured CAIX). The in real-time monitoring of the association and dissociation of the interaction gives access to the interaction kinetics parameters (i.e., the association and dissociation rate constants and the resulting affinity constants). […]
• For each measurement, the raw surface plasmon resonance response (RU) was plotted against time (s) as a sensorgram using the Biacore™ T200 Control Software. • Raw data were corrected by double referencing with subtraction of the signal of both the reference flow-cell and the blank cycle. • The association and dissociation rate constants (ka and kd, respectively), as well as the dissociation constant KD and dissociation half-life t½ were determined from the corrected sensorgrams by fitting the data to a 1:1 Langmuir binding model with the Biacore™ T200 evaluation software.

[1] = Dose range finding toxicity study by i.v. bolus in male beagle dogs; type: in vivo, dog; settings: i.v. bolus up to 800 μg/kg
Method: The following parameters and endpoints were evaluated: mortality, clinical observations, body weights, food consumption, local reactions, clinical pathology parameters (hematology, coagulation, and clinical chemistry), organ weights, and macroscopic examinations. Both animals were sampled for toxicokinetics (TK) on each dosing occasion (i.e., on day 1, day 5, day 9 and day 13) at: pre-dose, 15 min, 30 min, 1 h, 6 h and 24 h. Blood samples were collected in K2EDTA tubes. Plasma was prepared by centrifugation (2500 g for 10 minutes, +4° C.) within 1 hour after collection, and then frozen within 1 hour after centrifugation and stored at −80° C. […] Chromatographic separation was achieved using a Waters Acquity UPLC system with a Waters Acquity HSS T3 C18 2.1×50 mm, 1.8 μm column. Chromatography was conducted at 50° C. at a flow rate of 0.7 mL/min using a mobile phase consisting of A: acetonitrile, and B: 1% formic acid in water, according to the following linear gradient: 0 to 0.1 min: 90% B; 0.1 to 4.1 min: from 90% B to 74% B; 4.1 to 4.2 min: from 74% B to 5% B; 4.2 to 4.6 min: 5% B; 4.6 to 4.7 min: from 5% B to 90% B; 4.7-5.1 min; 90% B. Detection was performed using a Sciex AP16600 TOF mass spectrometer. Toxicokinetic parameters were estimated from concentration-time data using Phoenix pharmacokinetic software (version 6.4, Certara L.P.). […]

[2] = Functional observation battery (FOB), central nervous system, in dogs; type: in vivo; settings: dog, FOB 1 hour after dosing
Description: The test item treatment led to unaffected body weights, weight gains, and food intake. Likewise, no treatment-related abnormalities were reported during ophthalmic examinations, urinalysis, blood biochemistry, coagulation, and hematology investigations. There were no related organ weight changes and macroscopic and microscopic observations at early and late necropsies. Jacketed external telemetry was used to evaluate the potential cardiovascular and respiratory effects in the Subset B. Cardiorespiratory telemetry recordings were performed during the pre-test, Day 1 and 14. […] Arterial blood pressure parameters (systolic and diastolic blood pressure and mean arterial pressure) were measured continuously during consecutive 30-minute periods at pre-dose and for up to 6 h after dosing and over consecutive 60-minute periods up to 24 h after dosing. The respiratory rate was monitored on the pre-test, Day 1 and Day 14 at 0.5, 1, 2, 3, 4, 6, 8, 12, 16, 20, and 24 h. […] The potential effects on central nervous system parameters were evaluated under restrained and non-restrained conditions using a FOB in Subset A. Neurologic, autonomic, and behavioral investigations were performed in the pre-test, pre-dose, and 1 hour after dosing on Day 1.

[3] = Biodistribution of In-111-labeled compounds by SPECT/CT in HT-29 tumor-bearing mice; type: in vivo, mouse; settings: mouse
Method: (§1) The effect on tumor uptake of prior injection of gelofusine for kidney protection was investigated in mice bearing the SK-RC-52 tumor. Biodistribution was evaluated using in vivo SPECT/CT imaging. Prior to the in vivo study the compounds (ligands) were initially radiolabeled with In-111 and the stability of radiolabeled compounds was evaluated in buffer at three different timepoints.
(§2) The study was performed in female NMRI nude mice (approximately 6 weeks of age) from Janvier Labs, France, housed up to 5 mice per cage.
(§3) The column was washed with 2 mL water, and then the final product was eluted from the column in EtOH solution (50%) • The sample was formulated in PBS to the final concentration of 150 MBq/mL and 5 nmol/mL.
(§4) SK-RC-52 cells were cultured in RPMI 1640 with GlutaMax-I (Thermo Fisher Scientific #61870044) supplemented with 10% fetal bovine serum+1% penicillin/streptomycin, harvested, washed twice in RPMI 1640 and resuspended at 2×10^7 cells/mL in RPMI 1640. HT-29 cells were cultured in McCoy's 5a Medium Modified (Sigma #M9309). For inoculation of HT-29 cells, cells were harvested, washed twice in PBS and resuspended at 5×10^7 cells/mL in PBS. Cells were kept on ice until inoculation.
(§5) Animals were anaesthetized (isoflurane, 2-4% in ambient air supplemented with 100% O2) prior to tumor inoculation. The tumor cells (100 μL suspension of either SK-RC-52 cells (2×10^6 cells/animal) or HT-29 cells (5×10^6 cells/animal)) were subcutaneously inoculated in the right flank using a 1-mL syringe equipped with a 27G needle. Tumor growth and animal weight were measured twice per week. Tumor size was measured by caliper and the volume was estimated using the following formula: 0.52×(length×width^2). When tumor sizes reached 150-250 mm^3, animals were randomized into groups (n=3) of similar average tumor volume and body weight.
(§6) Animals were injected intravenously with In-111-labeled compounds (single bolus, 22.3-31.2 MBq, ~1 nmol ligand, injection volume: 100 μL) in the lateral tail vein using a 29G syringe.
(§7) CT was performed with helical scan, 300 ms exposure, reconstruction resolution of 250 μm. SPECT was performed with multi-pinhole scan and a 30 s frame time. For the quantification of the radioactivity uptake, regions of interests (ROIs) were drawn over the tumor, kidney, liver, and heart (estimate of blood) identified on the images. Uptake was expressed as percent of injected dose per gram tissue (% ID/g).

HT-29 tumor = assay: as above; type: in vivo, mouse
Method: as §1, §2, §3, §4, §5, §6, §7

CC(C)C[C@@H]1NC(=O)[C@H](Cc2cccc(NC(=O)CCCS(N)(=O)=O)c2)NC(=O)[C@H](CC(=O)O)NC(=O)[C@H]2CCCN2C(=O)[C@H](CCC(=O)O)NC(=O)[C@@H](NC(=O)[C@H](CCC(N)=O)NC(=O)CN2CCN(C(=O)CN3CCN(CC(=O)O)CCN(CC(=O)O)CCN(CC(=O)O)CC3)CC2)CSCc2cccc(c2)CSC[C@@H](C(N)=O)NC(=O)[C@H](CO)NC(=O)[C@H](Cc2c[nH]c3ccccc23)NC(=O)[C@H]([C@@H](C)O)NC1=O [DPI-4452, DOTA-PPAc-Gln-[Cys(3MeBn)-Glu-pro-Asp-Af3(Cpsu)-Leu-Thr-Trp-Ser-Cys]-NH2] ({DOTA}-[X1]QCE[dP]D[Phe(3-NHCO(CH2)3SO2NH2)]LTWSC-NH2; linker 3-12 via mXylylene)
t1/2 (dissociation half-life) (human CAIX): 1.65 h | Tolerability [1]: well tolerated systemically and locally | Central nervous system (neurologic, autonomic, behavioral domains) [2]: No effects were observed on the central nervous system | tissue uptake ([3]; ht-29 tumor, HT-29, Mean ± SEM, N=3, read-out: Peak Tumor Uptake): 5.21 ± 1.22 %ID/g | tissue uptake ([3]; kidney, HT-29 mice, read-out: Peak Kidney uptake): 5.37 ± 1.45 %ID/g | % remaining tumor uptake at 24 h p.i. (HT-29 tumor; HT-29): 65.8 ± 3.8% | Time to peak uptake in tumor (HT-29 tumor; HT-29): 2 h | Blood uptake at 4 h p.i. (HT-29 tumor; HT-29 mice): 0.04 ± 0.002 % ID/g | Kidney uptake at 24 h p.i. (HT-29 tumor; HT-29 mice): 1.41 ± 0.11 % ID/g | Liver uptake at 4 h p.i. (HT-29 tumor; HT-29 mice): 0.12 ± 0.005 % ID/g
